Assay results reported in patent US9856279B2 (AGIOS PHARMACEUTICALS, INC, priority 2011, dated 2018).

Target: IDH1 R132H (Homo sapiens, UniProt O75874, R132H)
Experiment: Assay for IDH1 R132H inhibitors (NADPH/aKG, resazurin detection)
Assay type: biochemical
Details: Table 3; enzyme assay, 50 minutes at room temperature; read-out: IC50 (IDH1 R132H Inhibition)
How it was run: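 Read-out is resorufin fluorescence (Ex544/Em590) 5 min after adding a 30 μM resazurin detection mix. Before that, mutant enzyme (0.2 μg/ml in its mix) ran 50 min at room temperature with compound, 8 uM NADPH and 2 mM aKG (mix levels) in Tris pH 7.5 with NaCl, MgCl2, BSA.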

Chain of IDH1 R132H (O75874 whole entry R132H): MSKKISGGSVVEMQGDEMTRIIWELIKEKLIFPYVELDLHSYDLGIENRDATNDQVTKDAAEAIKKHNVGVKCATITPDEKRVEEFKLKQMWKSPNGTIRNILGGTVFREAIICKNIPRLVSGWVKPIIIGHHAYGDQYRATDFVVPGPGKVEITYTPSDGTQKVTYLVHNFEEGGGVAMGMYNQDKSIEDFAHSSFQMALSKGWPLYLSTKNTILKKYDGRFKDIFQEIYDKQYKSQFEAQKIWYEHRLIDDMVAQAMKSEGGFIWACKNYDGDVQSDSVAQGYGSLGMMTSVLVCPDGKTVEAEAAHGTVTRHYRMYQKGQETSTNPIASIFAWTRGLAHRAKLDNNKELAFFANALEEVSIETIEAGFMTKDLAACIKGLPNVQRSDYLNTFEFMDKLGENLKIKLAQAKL

| Structure (SMILES) | IC50 [nM] |
| --- | --- |
| COCCC(=O)N1CCN(c2nc(C(C)C)c(-c3ccc4c(c3)OCO4)cc2C#N)C[C@H]1C [Compound 224, (R)-5-(benzo[d][1,3]dioxol-5-yl)-6-isopropyl-2-(4-(3-methoxypropanoyl)-3-methylpiperazin-1-yl)nicotinonitrile] | ≤ 1000 |
| COCCC(=O)N1CCN(c2nc(C(C)C)c(-c3ccc4ccccc4c3)cc2C#N)C[C@H]1C [Compound 211, (R)-6-isopropyl-2-(4-(3-methoxypropanoyl)-3-methylpiperazin-1-yl)-5-(naphthalen-2-yl)nicotinonitrile] | 1000 to 5000 |
| COc1ccccc1-c1cc(C(C)C)nc(N2CCN(C(=O)c3c[nH]c4ccccc34)CC2)c1C#N [Compound 106] | 5000 to 15000 |
| Cc1ccc(-c2cc(C#N)c(N3CCN(C(=O)c4ccco4)[C@H](C)C3)nc2C(C)C)cc1 [Compound 180, (R)-2-(4-(furan-2-carbonyl)-3-methylpiperazin-1-yl)-6-isopropyl-5-p-tolylnicotinonitrile] | 1000 to 5000 |
| CC(C)c1cc(-c2ccccc2)nc(N2CCN(C(=O)c3ccoc3)C(C)C2)c1C#N (stereo not shown) [Compound 111] | 5000 to 15000 |
| CC(C)c1nc(N2CCN(C(=O)c3ccco3)CC2)c(C#N)cc1-c1ccccc1 [Compound 109, 2-(4-(furan-2-carbonyl)piperazin-1-yl)-6-isopropyl-5-phenylnicotinonitrile] | 5000 to 15000 |
| CC(C)c1cc(-c2cccc(F)c2)c(C#N)c(N2CC(C)N(C(=O)c3ccco3)C(C)C2)n1 (stereo not shown) [Compound 136, 4-(3-fluorophenyl)-2-(4-(furan-2-carbonyl)-3,5-dimethylpiperazin-1-yl)-6-isopropylnicotinonitrile] | 5000 to 15000 |
| CC[C@@H]1CN(c2nc(C(C)C)c(-c3ccccc3)cc2C#N)CCN1C(=O)c1ccoc1 [Compound 171, (R)-2-(3-ethyl-4-(furan-3-carbonyl)piperazin-1-yl)-6-isopropyl-5-phenylnicotinonitrile] | 1000 to 5000 |
| COc1cccc(-c2cc(C(C)C)nc(N3CCN(C(=O)c4ccoc4)[C@H](C)C3)c2C#N)c1 [Compound 151, (R)-2-(4-(furan-3-carbonyl)-3-methylpiperazin-1-yl)-6-isopropyl-4-(3-methoxyphenyl)nicotinonitrile] | 1000 to 5000 |
| CC(C)c1nc(N2CCN(C(=O)c3ccoc3)[C@H](C)C2)c(C#N)cc1-c1cccc(F)c1 [Compound 161, (R)-5-(3-fluorophenyl)-2-(4-(furan-3-carbonyl)-3-methylpiperazin-1-yl)-6-isopropylnicotinonitrile] | 1000 to 5000 |
| CC(C)c1cc(-c2ccccc2)c(C#N)c(N2C[C@@H](C)N(C(=O)c3ccco3)[C@@H](C)C2)n1 [Compound 102, 2-((3S,5R)-4-(furan-2-carbonyl)-3,5-dimethylpiperazin-4-yl)-6-isopropyl-4-phenylnicotinonitrile] | 1000 to 5000 |
| CC(C)c1cc(-c2ccccc2)c(C#N)c(N2CCN(C(=O)Cc3ccccc3)[C@H](C)C2)n1 [Compound 131, (R)-6-isopropyl-2-(3-methyl-4-(2-phenylacetyl)piperazin-1-yl)-4-phenylnicotinonitrile] | 1000 to 5000 |

Same assay, conditions: enzyme assay of Example 12; read-out: IDH1R132H IC50

| Structure (SMILES) | IC50 [nM] |
| --- | --- |
| C=Cc1ccnc(Nc2cc(C#N)c(N3CCN(C(=O)C[C@H]4CCCO4)[C@H](C4CC4)C3)nc2C2CC2)c1 [Compound 828] | < 500 |
| COCCC(=O)N1CCN(c2nc(C3CC3)c(-c3ccc(F)cc3)c(COC)c2C#N)C[C@H]1C [Compound 298, (R)-6-cyclopropyl-5-(4-fluorophenyl)-4-(methoxymethyl)-2-(4-(3-methoxypropanoyl)-3-methylpiperazin-1-yl)nicotinonitrile] | 500 to 1000 |
| COCCC(=O)N1CCN(c2nc(C3CC3)c(-c3ccc(N4CCOCC4)cc3)cc2C#N)C[C@H]1C [Compound 354, (R)-6-cyclopropyl-2-[4-(3-methoxy-propionyl)-3-methyl-piperazin-1-yl]-5-(4-morpholin-4-yl-phenyl)-nicotinonitrile] | 500 to 1000 |
| COCCC(=O)N1CCN(c2nc(C3CC3)c(-c3cccnc3OC)cc2C#N)C[C@H]1C [Compound 328, (R)-2-cyclopropyl-2′-methoxy-6-[4-(3-methoxy-propionyl)-3-methyl-piperazin-1-yl]-[3,3]bipyridinyl-5-carbonitrile] | < 500 |
| COCCC(=O)N1CCN(c2nc(C3CC3)c(-c3cccc(CO)c3)cc2C#N)C[C@H]1C [Compound 306, (R)-6-cyclopropyl-5-(3-(hydroxymethyl)phenyl)-2-(4-(3-methoxypropanoyl)-3-methylpiperazin-1-yl)nicotinonitrile] | 500 to 1000 |
| N#Cc1cc(-c2cccc3c2NC(=O)C3=O)c(C2CC2)nc1N1CCN(C(=O)C2CC2)[C@H](C2CC2)C1 [Compound 513, (R)-2-(4-(cyclopropanecarbonyl)-3-cyclopropylpiperazin-1-yl)-6-cyclopropyl-5-(2,3-dioxoindolin-7-yl)nicotinonitrile] | 500 to 1000 |
| COCCC(=O)N1CCN(c2nc(C3CC3)c(-c3ccc(-c4ccccc4)c(F)c3)c(C)c2C#N)C[C@H]1C [Compound 282, (R)-6-cyclopropyl-5-(2-fluorobiphenyl-4-yl)-2-(4-(3-methoxypropanoyl)-3-methylpiperazin-1-yl)-4-methylnicotinonitrile] | 500 to 1000 |
| C[C@@H]1CN(c2nc(C3CC3)c(Oc3ccnc(Cl)c3)cc2C#N)CCN1C(=O)CCO [Compound 704, (R)-5-((2-chloropyridin-4-yl)oxy)-6-cyclopropyl-2-(4-(3-hydroxypropanoyl)-3-methylpiperazin-1-yl)nicotinonitrile] | < 500 |
| C=Cc1cc(-c2c(C3CC3)nc(N3CCN(C(=O)CCC4CCC4)[C@H](C4CC4)C3)c(C#N)c2C)ccn1 [Compound 826, (R)-6-(4-(3-cyclobutylpropanoyl)-3-cyclopropylpiperazin-1-yl)-2-cyclopropyl-4-methyl-2′-vinyl-3,4′-bipyridine-5-carbonitrile] | < 500 |
| COCCC(=O)N1CCN(c2nc(C3CC3)c(OCc3ccc(OC)cc3)cc2C#N)C[C@H]1C [Compound 281, (R)-6-cyclopropyl-5-(4-methoxybenzyloxy)-2-(4-(3-methoxypropanoyl)-3-methylpiperazin-1-yl)nicotinonitrile] | 500 to 1000 |
| COCCC(=O)N1CCN(c2nc(C3CC3)c(-c3cnc(OC)c4ccccc34)cc2C#N)C[C@H]1C [Compound 474, (R)-6-cyclopropyl-5-(1-methoxy-isoquinolin-4-yl)-2-[4-(3-methoxy-propionyl)-3-methyl-piperazin-1-yl]-nicotinonitrile] | < 500 |
| COCCC(=O)N1CCN(c2nc(C3CC3)c(OC(C)c3cccc(Cl)c3)cc2C#N)C[C@H]1C (stereo partly drawn) [Compound 310, 5-(1-(3-chlorophenyl)ethoxy)-6-cyclopropyl-2-((R)-4-(3-methoxypropanoyl)-3-methylpiperazin-1-yl)nicotinonitrile] | 500 to 1000 |
| COCCC(=O)N1CCN(c2nc(C3CC3)c(-c3cccc(F)c3F)c(C)c2C#N)C[C@H]1C [Compound 405, (R)-6-cyclopropyl-5-(2,3-difluoro-phenyl)-2-[4-(3-methoxy-propionyl)-3-methyl-piperazin-1-yl]-4-methyl-nicotinonitrile] | < 500 |
| COCCC(=O)N1CCN(c2nc(C3CC3)c(OC(C)c3ccc(Cl)cc3)cc2C#N)C[C@H]1C (stereo partly drawn) [Compound 311, 5-(1-(4-chlorophenyl)ethoxy)-6-cyclopropyl-2-((R)-4-(3-methoxypropanoyl)-3-methylpiperazin-1-yl)nicotinonitrile] | 500 to 1000 |
| COCCC(=O)N1CCN(c2nc(C3CC3)c(-c3cccc(NC(C)=O)c3)cc2C#N)C[C@H]1C [Compound 284, (R)—N-(3-(5-cyano-2-cyclopropyl-6-(4-(3-methoxypropanoyl)-3-methylpiperazin-1-yl)pyridin-3-yl)phenyl)acetamide] | 500 to 1000 |
| N#Cc1cc(Oc2cc(Cl)ccn2)c(C2CC2)nc1N1CCN(C(=O)CCO)[C@H](C2CC2)C1 [Compound 734, (R)-5-((4-chloropyridin-2-yl)oxy)-6-cyclopropyl-2-(3-cyclopropyl-4-(3-hydroxypropanoyl)piperazin-1-yl)nicotinonitrile] | < 500 |
| N#Cc1cc(-c2cccc3nc(Cl)ccc23)c(C2CC2)nc1N1CCN(C(=O)C2CC2)[C@H](C2CC2)C1 [Compound 549, (R)-5-(2-chloroquinolin-5-yl)-2-(4-(cyclopropanecarbonyl)-3-cyclopropylpiperazin-1-yl)-6-cyclopropylnicotinonitrile] | < 500 |
| COCCC(=O)N1CCN(c2nc(C3CC3)c(-c3cccc(NS(=O)(=O)CCl)c3)cc2C#N)C[C@H]1C [Compound 404, (R)-1-chloro-N-(3-(5-cyano-2-cyclopropyl-6-(4-(3-methoxypropanoyl)-3-methylpiperazin-1-yl)pyridin-3-yl)phenyl)methanesulfonamide] | 500 to 1000 |
| COCCC(=O)N1CCN(c2nc(C3CC3)c(-c3ccc(OCC4CC4)cc3)c(C)c2C#N)C[C@H]1C [Compound 336, (R)-6-cyclopropyl-5-(4-cyclopropylmethoxy-phenyl)-2-[4-(3-methoxy-propionyl)-3-methyl-piperazin-1-yl]-4-methyl-nicotinonitrile] | 500 to 1000 |
| COCCC(=O)N1CCN(c2nc(C3CC3)c(-c3ccnc(OS(=O)(=O)C(F)(F)F)c3)cc2C#N)C[C@H]1C [Compound 779, (R)-5-cyano-2-cyclopropyl-6-(4-(3-methoxypropanoyl)-3-methylpiperazin-1-yl)-[3,4′-bipyridin]-2′-yl trifluoromethanesulfonate] | 1000 to 10000 |
| N#Cc1cc(-c2cccc3cnccc23)c(C2CC2)nc1N1CCN(C(=O)C2CC2)C(C(F)(F)F)C1 (stereo not shown) [Compound 397, 2-(4-(cyclopropanecarbonyl)-3-(trifluoromethyl)piperazin-1-yl)-6-cyclopropyl-5-(isoquinolin-5-yl)nicotinonitrile] | < 500 |
| C[C@@H]1CN(c2nc(C3CC3)c(-c3cccc4cnccc34)cc2C#N)CCN1C(=O)C1CC1 [Compound 556, (R)-2-(4-(cyclopropanecarbonyl)-3-methylpiperazin-1-yl)-6-cyclopropyl-5-(isoquinolin-5-yl)nicotinonitrile] | < 500 |
